Experimental data from patent US20050239809A1, “Methods for treating and preventing hypertension and hypertension-related disorders” (priority 2004, published 2005).

Test system: endothelium-denuded aorta from DOCA-salt and sham rats
Assay: Spontaneous tone of endothelium-denuded thoracic aorta in isolated tissue baths (isometric force)
Set-up: species or system rat
Protocol: Endothelial cell-denuded thoracic aorta, removed from pentobarbital (60 mg kg^-1, i.p.) anesthetized rats, were pair-mounted (Sham/DOCA) in isolated tissue baths for measurement of isometric force. (Florian and Watts (1999) Am. J. Physiol., 276: […]-[…]) Tissues were challenged with a maximal concentration of a adrenergic agonist, phenylephrine (PE) (10^-5 mol/L). IC87114 (ICOS Corporation, Bothell, Wash.) concentration response curves were generated by adding increasing concentrations of IC87114 (1×10^-9-3×10^-4 mol/L) with measurements of spontaneous tone taken every 30 minutes. Aortic strips from DOCA-salt rats were also exposed to 20 μmol/L IC87114 or vehicle for 1 hour and measurements of spontaneous tone were recorded. […] Tissues were under passive tension for optimal force production. […] The effect of IC87114 was reversible in all experiments, as spontaneous tone was restored upon washing out of IC87114. In further experiments using an IC87114 concentration equivalent to that used in previous experiments with LY294002 (20 μmol/L) (Example 1), IC87114 (20 μmol/L) or vehicle (0.1% DMSO) was incubated with aortic strips from DOCA-salt rats for 1 hour in isolated tissue baths.

Cc1ccccc1-n1c(Cn2cnc3c(N)ncnc32)nc2cccc(C)c2c1=O [IC87114, 2-(6-aminopurin-9-ylmethyl)-5-methyl-3-o-tolyl-3H-quinazolin-4-one]
effect on spontaneous tone in aorta from DOCA-salt rats, single concentration (20 μmol/L, 1 hour incubation, compared to vehicle (0.1% DMSO), P<0.05): significantly inhibits spontaneous tone development
effect of increasing concentrations on spontaneous tone in aorta from DOCA-salt rats (10^−9 to 3×10^−4 mol/L, absence of agonist, endothelium-denuded aortic strips): reduced spontaneous tone in a concentration-dependent manner
reversibility of effect on spontaneous tone upon washing out (aorta from DOCA-salt rats): reversible
